# Key:
# [1] = system: A2058 (human metastatic melanoma cells, Rb-negative); assay: CellTiter-Glo cellular proliferation assay, A2058; format: cell-based; conditions: A2058, 144 h, six days
# Experimental: (§1) Cellular proliferation assays were conducted using the following Rb-negative cancer cell lines: H69 (human small cell lung cancer—Rb-negative) cells or A2058 (human metastatic melanoma cells—Rb-negative). These cells were seeded in Costar (Tewksbury, Mass.) 3093 96 well tissue culture treated white walled/clear bottom plates. Cells were treated Formulas I, II, III, or IV as nine point dose response dilution series from 10 uM to 1 nM. Cells were exposed to compounds and then cell viability was determined after either four (H69) or six (A2058) days as indicated using the CellTiter-Glo® luminescent cell viability assay (CTG; Promega, Madison, Wis., United States of America) following the manufacturer's recommendations. Plates were read on BioTek (Winooski, Vt.) Syngergy2 multi-mode plate reader. The Relative Light Units (RLU) were plotted as a result of variable molar concentration and data was analyzed using Graphpad (LaJolla, Californaia) Prism 5 statistical software to determine the EC50 for each compound.
# [2] = system: H69 (human small cell lung cancer, Rb-negative) cells; assay: CellTiter-Glo cellular proliferation assay, H69; format: cell-based; conditions: NCI-H69, 96 h, four days
# Experimental: as §1
# [3] = system: HS68 cells; assay: G1 arrest (cellular G1 and S-phase) assay, propidium iodide flow cytometry; format: cell-based; conditions: Homo sapiens
# Experimental: For determination of cellular fractions in various stages of the cell cycle following various treatments, HS68 cells (human skin fibroblast cell line (Rb-positive)) were stained with propidium iodide staining solution and run on Dako Cyan Flow Cytometer. The fraction of cells in G0-G1 DNA cell cycle versus the fraction in S-phase DNA cell cycle was determined using FlowJo 7.2.2 analysis.
# Formulas I, II, III, and IV were tested for their ability to arrest HS68 cells at the G1 phase of the cell cycle.
# [4] = system: RB-negative SCLC cell lines (H69, H82, H209, H345, NCI417, SHP-77); assay: Proliferation by EdU incorporation, RB-negative SCLC cell lines; format: cell-based; conditions: 24 hours; PD0332991 300 nM, Formula I and III 300 nM or 1000 nM
# Experimental: (§2) SCLC cells were treated with DMSO or the indicated CDK4/6 inhibitor for 24 hours. The effect of CDK4/6 inhibition on proliferation was measured by EdU incorporation. An RB-intact, CDK4/6-dependent cell line (WM2664 or tHS68) and a panel of RB-negative SCLC cell lines (H69, H82, H209, H345, NCI417, or SHP-77) were analyzed for growth inhibition by the various CDK4/6 inhibitors.
# [5] = system: WM2664 or tHS68; assay: Proliferation by EdU incorporation, RB-intact CDK4/6-dependent cell line; format: cell-based; conditions: 24 hours; WM2664 for PD0332991 (300 nM), tHS68 for Formula I and III (300 nM or 1000 nM)
# Experimental: as §2
# [6] = system: CDK4/6 independent Rb-null melanoma cell line A2058; conditions: cited from earlier work
# [7] = system: human renal proximal tubule epithelial cells (Rb-positive); assay: Cellular wash-out experiment, renal cells; format: cell-based; conditions: 300 nM
# Experimental: Alternatively, the same experiment was done using normal Renal Proximal Tubule Epithelial Cells (Rb-positive) obtained from American Type Culture Collection (ATCC, Manassas, Va.). Cells were grown in an incubator at 37° C. in a humidified atmosphere of 5% CO2 in Renal Epithelial Cell Basal Media (ATCC) supplemented with Renal Epithelial Cell Growth Kit (ATCC) in 37° C. humidified incubator.
# Upon harvesting cells, samples were stained with propidium iodide staining solution and samples run on Dako Cyan Flow Cytometer. The fraction of cells in G0-G1 DNA cell cycle versus the fraction in S-phase DNA cell cycle was determined using FlowJo 7.2.2 analysis.
# [8] = system: HSPC; conditions: in humans; cited from earlier work
# [9] = system: HSPC (LKS+) and myeloid progenitor cells (LKS−); conditions: single dose 150 mg/kg oral gavage, mice; cited from earlier work
# [10] = Grade 3/4 neutropenia and leukopenia; cited from earlier work
# [11] = system: mice exposed to peri-lethal and lethal TBI; conditions: compared to untreated controls; cited from earlier work
# [12] = system: CDK4/6-dependent cell lines; conditions: cited from earlier work
# [13] = system: HSPC; assay: PK half-life and HSPC cell cycle arrest of PD0332991 in humans; format: in vivo
# [14] = system: tHS68 cells; assay: g-H2A.X assay after irradiation; format: cell-based; conditions: 100, 300 or 1,000 nM after 6, 8 or 10 Gy
# Experimental: (§3) DNA damage was determined using the g-H2A.X assay and apoptosis was determined with a Caspase 3/7 assay. For the g-H2AX assay, tHS68 cells were fixed and stained using the g-H2A.X Phosphorylation Assay Kit (Flow Cytometry; Millipore, Temecula, Calif.) by the manufacturer's instructions. g-H2AX-positive tHDF cells were then quantified using a CyAn ADP Analyzer (Beckman Coulter, Indianapolis, Ind.) and FlowJo analysis software (Version 7.2.2; Tree Star, Ashland, Oreg.). For the in vitro caspase 3/7 assay, tHDF cells were analyzed directly in the 96-well plates 24 hours after radiation or staurosporine treatment. Caspase 3/7 activation was measured using the Caspase-Glo 3/7 Assay System (Promega, Madison, Wis.) by following the manufacturer's instructions.
# (§4) For the g-H2AX assay, 30,000 cells were plated per well in 12-well plates. For the caspase 3/7 assay, 1,000 cells were plated per well in 96-well white wall clear bottom plates. Cells were incubated at 37° C. in a humidified atmosphere of 5% CO2 for 24 hours and then irradiated at 6 Gy, 8 Gy, or 10 Gy.
# [15] = system: 456 (395 non-mutant) kinases; assay: DiscoveRx KINOMEscan profiling; format: binding; conditions: single concentration of 1000 nM
# [16] = Metabolic stability in liver microsomes; format: in vitro ADME, and mouse; conditions: each of the species tested (human, monkey, dog, rat, mouse); 1 uM, 0.5 mg/mL microsomes
# Experimental: Human, mouse, and dog liver microsomes were purchased from Xenotech, and Sprague-Dawley rat liver microsomes were prepared by Absorption Systems. The reaction mixture comprising 0.5 mg/mL of liver microsomes, 100 mM of potassium phosphate, pH 7.4, 5 mM of magnesium chloride, and 1 uM of test compound was prepared. The test compound was added into the reaction mixture at a final concentration of 1 uM. An aliquot of the reaction mixture (without cofactor) was incubated in shaking water bath at 37 deg. C. for 3 minutes. The control compound, testosterone, was run simultaneously with the test compound in a separate reaction. The reaction was initiated by the addition of cofactor (NADPH), and the mixture was then incubated in a shaking water bath at 37 deg. C. Aliquots (100 μL) were withdrawn at 0, 10, 20, 30, and 60 minutes for the test compound and 0, 10, 30, and 60 minutes for testosterone. […] Test compound samples were analyzed using the Orbitrap high resolution mass spectrometer to quantify the disappearance of parent test compound and detect the appearance of metabolites. […] Half-lives were calculated using GraphPad software, fitting to a single-phase exponential decay equation.
# When calculated half-life was longer than the duration of the experiment, the half-life was expressed as > the longest incubation time. The calculated half-life is also listed in parentheses. […]
# [17] = system: tHDF cells; assay: Caspase 3/7 assay after irradiation; format: cell-based; conditions: 100, 300 or 1,000 nM after 6, 8 or 10 Gy
# Experimental: as §3, §4
# [18] = system: mice after total body irradiation; assay: Radiomitigation, survival after total body irradiation; format: in vivo
# Experimental: Wild-type mice, young adult (8-12 weeks of age) C57BL/6 (The Jackson Laboratory) or C3H (Harlan Sprague-Dawley) animals were used. Animals were irradiated using a 137Cs AECL GammaCell 40 Irradiator (Atomic Energy of Canada) or a XRAD320 (Precision XRay Inc.) biological irradiator. Experiments were carried out using the 137Cs source, unless otherwise noted.
# [19] = system: tHS68 cells; assay: Cell cycle arrest in CDK4/6-dependent cells, propidium iodide flow cytometry; format: cell-based
# Text: To test the ability of CDK4/6 inhibitors to induce a clean G1-arrest, a cell based screening method was used consisting of two CDK4/6-dependent cell lines (tHS68 and WM2664; Rb-positive) and one CDK4/6-independent (A2058; Rb-negative) cell line. […] At the conclusion of the experiment, cells were harvested, fixed, and stained with propidium iodide (a DNA intercalator), which fluoresces strongly red (emission maximum 637 nm) when excited by 488 nm light. Samples were run on Dako Cyan flow cytometer and >10,000 events were collected for each sample. Data were analyzed using FlowJo 2.2 software developed by TreeStar, Inc.
# [20] = single oral dose 150 mg/kg 12 hours after exposure
structure (smiles),measurement,setting,value
"CC(C)N1CCN(c2ccc(Nc3ncc4cc5n(c4n3)C3(CCCCC3)CNC5=O)nc2)CC1 [Formula III, 2′-((5-(4-isopropylpiperazin-1-yl)pyridin-2-yl)amino)-7′,8′-dihydro-6′H-spiro[cyclohexane-1,9′-pyrazino[1′,2′:1,5]pyrrolo[2,3-d]pyrimidin]-6′-one]",EC50,[1],2.69 µM
same,EC50,[2],2.92 µM
same,EC50,[3],0.08 µM
same,"effect on growth (cells in S phase, EdU) of Rb-negative SCLC cell lines",[4],does not affect the growth
same,"effect on proliferation (cells in S phase, EdU) of Rb-positive cell line",[5],inhibits
"O=C1NCC2(CCCCC2)n2c1cc1cnc(Nc3ccc(N4CCC(N5CCOCC5)CC4)cn3)nc12 [Formula IV, 2′-((5-(4-morpholinopiperidin-1-yl)pyridin-2-yl)amino)-7′,8′-dihydro-6′H-spiro[cyclohexane-1,9′-pyrazino[1′,2′:1,5]pyrrolo[2,3-d]pyrimidin]-6′-one]",EC50,[1],> 3 µM
same,EC50,[2],> 3 µM
same,EC50,[3],0.025 µM
"CC(=O)c1c(C)c2cnc(Nc3ccc(N4CCNCC4)cn3)nc2n(C2CCCC2)c1=O [PD0332991, 6-acetyl-8-cyclopentyl-5-methyl-2-(5-piperazin-1-yl-pyridin-2-ylammino)-8H-pyrido-[2,3-d]-pyrimidin-7-one]",G1 arrest,[6],did not G1 arrest
same,protection from IR exposure,[6],failed to protect
same,return to baseline levels of cell division after wash out,[7],took significantly longer to return to baseline levels of cell division
same,PK half-life,[8],27 h
same,duration of sustained reduction in HSPC (LKS+) and myeloid progenitor (LKS−) EdU incorporation,[9],greater than 36 hours
same,time post oral dosing of return to baseline cell division,[9],48 h
same,patients requiring a dose interruption,[10],71%
same,patients requiring a dose reduction,[10],35%
same,HSPC protection and survival after TBI,[11],protect HSPCs and improve survival of mice
same,IR protection,[12],exhibited IR protective characteristics
same,"effect on growth (cells in S phase, EdU) of Rb-negative SCLC cell lines",[4],does not affect the growth
same,"effect on proliferation (cells in S phase, EdU) of Rb-positive cell line",[5],inhibits
same,total time for normal bone marrow function to return,[13],≥ 7 days
same,time to clear the compound,[13]; 5 half-lives × 27 hour half-life,6 days
same,duration of cell cycle arrest of HSPC,[13]; single administration,approximately one week
"O=C1NCC2(CCCCC2)n2c1cc1cnc(Nc3ccc(N4CCNCC4)cn3)nc12 [Formula II, 2′-((5-(piperazin-1-yl)pyridin-2-yl)amino)-7′,8′-dihydro-6′H-spiro[cyclohexane-1,9′-pyrazino[1′,2′:1,5]pyrrolo[2,3-d]pyrimidin]-6′-one]",EC50,[1],2.61 µM
same,EC50,[2],> 3 µM
same,EC50,[3],0.1 µM
"CN1CCN(c2ccc(Nc3ncc4cc5n(c4n3)C3(CCCCC3)CNC5=O)nc2)CC1 [Formula I, 2′-((5-(4-methylpiperazin-1-yl)pyridin-2-yl)amino)-7′,8′-dihydro-6′H-spiro[cyclohexane-1,9′-pyrazino[1′,2′:1,5]pyrrolo[2,3-d]pyrimidin]-6′-one]",radiation induced DNA damage (H2AX foci),[14],dose dependent decrease in radiation induced DNA damage
same,"number of 395 non-mutant kinases inhibited, threshold 65%",[15]; inhibitory threshold 65%,92
same,"number of 395 non-mutant kinases inhibited, threshold 90%",[15]; inhibitory threshold 90%,31
same,"number of 395 non-mutant kinases inhibited, threshold 99%",[15]; inhibitory threshold 99%,6
same,EC50,[1],> 3 µM
same,EC50,[2],> 3 µM
same,half-life in liver microsomes,[16],shorter half-life than PD0332991
same,EC50,[3],0.1 µM
same,"effect on growth (cells in S phase, EdU) of Rb-negative SCLC cell lines",[4],does not affect the growth
same,radiation induced apoptosis (caspase 3/7 activity),[17],dose dependent decrease in radiation induced apoptosis
same,"survival after 7.5 Gy TBI, two doses",[18]; 150 mg/kg oral at 12 hours and 24 hours post TBI,Survival was also enhanced
same,survival after 7.2 Gy TBI,[18]; [20],provided radiomitigation
same,survival after 7.5 Gy TBI,[18]; [20],significant survival effect
same,"effect on proliferation (cells in S phase, EdU) of Rb-positive cell line",[5],inhibits
same,cells in S-phase at the highest concentration shown,"[19]; tHS68, 24 hours, 28% at baseline",6%
same,EC50,"[19]; tHS68 cells, 24 hours, read-out: G1 cell cycle arrest EC50",0.08 µM
